Measurements from US10947242B2, “[1,2,4]triazolo[1,5and#8208;A]pyrimidine compounds as PDE2 inhibitors” (Janssen Pharmaceutica NV, priority 2016, dated 2021).
Like-named read-outs stand apart in the source and are kept apart here.

How the values were obtained:
Format in all cases: biochemical
[1] = biological target: T1, Human recombinant PDE3A (hPDE3A) (Homo sapiens, UniProt Q14432); experiment: In vitro assay PDE3A (SPA, 3H-cAMP hydrolysis); conditions: for IC50: hPDE3B pIC50, read-out: pIC50 (converted); for Emax: read-out: hPDE3B Emax, read-out: Emax;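 for all read-outs here: the method names PDE3A and the table heading PDE3B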
T1 construct: purchased Scottish Biomedical; host or cells: Sf9 insect cells
Procedure, shortened: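 Human PDE3A, cloned from brain, as partially purified Sf9 lysate. Substrate 0.4 μM cAMP plus [3H]-cAMP (2.4 μCi/ml final) in 50 mM Tris pH 7.8, 8.3 mM MgCl2, 1.7 mM EGTA, 60 min at room temperature, 1% DMSO final. Hydrolysis read by SPA scintillation counting against no-enzyme blanks and DMSO controls.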

[2] = biological target: T2, Human recombinant PDE10A (hPDE10A) (Homo sapiens, UniProt Q9Y233); experiment: In vitro assay PDE10A, human clone (SPA, 3H-cAMP hydrolysis); conditions: human clone (h), default; for Emax: read-out: hPDE10A2 Emax; for IC50: read-out: hPDE10A2 pIC50 (converted)
T2 construct: His tag (inferred from metal chelate purification); made in house; host or cells: Sf9 insect cells (baculovirus)
Procedure, shortened: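 Human recombinant PDE10A was expressed in Sf9 cells via baculovirus and incubated with compound in 50 mM Tris pH 7.8, 8.3 mM MgCl2, 1.7 mM EGTA. Substrate was 60 nM cAMP plus 0.008 μCi 3H-cAMP for 60 min at room temperature, read by SPA scintillation counting. Controls used 1% DMSO, and blanks omitted enzyme.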

[3] = biological target: T3, Human recombinant PDE2A (hPDE2A) (Homo sapiens, UniProt O00408); experiment: In vitro assay PDE2A (SPA, 3H-cGMP hydrolysis); conditions: for IC50: read-out: hPDE2A pIC50 (converted); for Emax: read-out: hPDE2A Emax
T3 construct: His tag (inferred from metal chelate purification); made in house; host or cells: Sf9 insect cells (baculovirus)

[4] = human recombinant PDE2A, 10 μM cGMP substrate

T3 sequence (O00408 whole entry): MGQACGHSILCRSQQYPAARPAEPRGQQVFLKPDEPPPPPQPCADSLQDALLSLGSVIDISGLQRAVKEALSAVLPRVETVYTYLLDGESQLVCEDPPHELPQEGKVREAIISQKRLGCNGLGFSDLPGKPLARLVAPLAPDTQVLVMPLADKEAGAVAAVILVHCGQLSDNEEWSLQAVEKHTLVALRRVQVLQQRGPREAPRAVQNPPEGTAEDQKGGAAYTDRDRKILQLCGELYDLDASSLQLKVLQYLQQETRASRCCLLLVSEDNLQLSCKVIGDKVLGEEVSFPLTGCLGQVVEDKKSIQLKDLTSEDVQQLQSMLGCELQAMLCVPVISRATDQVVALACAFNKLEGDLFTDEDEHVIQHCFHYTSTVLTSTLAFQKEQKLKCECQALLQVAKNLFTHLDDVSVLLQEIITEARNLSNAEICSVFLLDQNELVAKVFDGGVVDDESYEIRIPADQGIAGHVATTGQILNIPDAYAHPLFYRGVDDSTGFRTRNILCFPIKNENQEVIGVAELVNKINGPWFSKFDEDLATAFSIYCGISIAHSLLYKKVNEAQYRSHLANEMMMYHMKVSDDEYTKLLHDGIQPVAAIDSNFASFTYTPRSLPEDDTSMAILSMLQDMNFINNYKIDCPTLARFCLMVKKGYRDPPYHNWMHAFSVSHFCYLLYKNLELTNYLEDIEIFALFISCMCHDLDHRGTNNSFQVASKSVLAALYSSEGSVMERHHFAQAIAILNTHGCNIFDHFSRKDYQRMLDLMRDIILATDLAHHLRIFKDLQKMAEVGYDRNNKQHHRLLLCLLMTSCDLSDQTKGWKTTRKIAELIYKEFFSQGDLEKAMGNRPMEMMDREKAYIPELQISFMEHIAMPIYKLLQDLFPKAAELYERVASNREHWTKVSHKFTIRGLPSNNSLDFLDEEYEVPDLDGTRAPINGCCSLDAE
T1 sequence (Q14432 whole entry): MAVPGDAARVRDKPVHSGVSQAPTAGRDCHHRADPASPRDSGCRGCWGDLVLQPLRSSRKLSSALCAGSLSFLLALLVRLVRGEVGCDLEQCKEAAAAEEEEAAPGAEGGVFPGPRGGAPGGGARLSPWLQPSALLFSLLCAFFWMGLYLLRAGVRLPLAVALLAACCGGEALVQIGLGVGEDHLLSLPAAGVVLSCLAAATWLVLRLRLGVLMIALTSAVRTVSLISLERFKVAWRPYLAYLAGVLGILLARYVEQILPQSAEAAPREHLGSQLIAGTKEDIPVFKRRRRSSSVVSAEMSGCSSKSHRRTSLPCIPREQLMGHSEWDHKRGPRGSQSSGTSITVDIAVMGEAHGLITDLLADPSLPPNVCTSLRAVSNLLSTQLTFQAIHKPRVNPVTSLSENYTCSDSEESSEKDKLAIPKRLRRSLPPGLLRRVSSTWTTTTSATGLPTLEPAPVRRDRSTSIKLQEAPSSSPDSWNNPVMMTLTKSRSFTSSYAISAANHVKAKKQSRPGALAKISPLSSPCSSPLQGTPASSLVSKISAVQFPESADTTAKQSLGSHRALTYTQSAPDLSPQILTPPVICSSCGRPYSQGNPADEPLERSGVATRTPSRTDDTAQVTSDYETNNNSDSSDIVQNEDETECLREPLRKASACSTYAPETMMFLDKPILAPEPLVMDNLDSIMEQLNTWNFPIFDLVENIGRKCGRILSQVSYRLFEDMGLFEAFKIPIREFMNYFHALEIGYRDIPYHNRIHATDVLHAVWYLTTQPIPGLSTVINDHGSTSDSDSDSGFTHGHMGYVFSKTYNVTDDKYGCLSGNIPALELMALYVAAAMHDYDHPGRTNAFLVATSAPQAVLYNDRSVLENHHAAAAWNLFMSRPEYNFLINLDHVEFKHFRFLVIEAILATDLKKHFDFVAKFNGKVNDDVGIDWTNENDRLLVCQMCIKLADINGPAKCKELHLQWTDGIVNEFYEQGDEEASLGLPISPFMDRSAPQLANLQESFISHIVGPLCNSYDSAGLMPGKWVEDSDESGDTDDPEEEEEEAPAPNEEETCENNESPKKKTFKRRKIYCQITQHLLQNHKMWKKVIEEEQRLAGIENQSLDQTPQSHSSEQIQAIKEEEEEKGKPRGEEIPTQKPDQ
T2 sequence (Q9Y233 267-1055): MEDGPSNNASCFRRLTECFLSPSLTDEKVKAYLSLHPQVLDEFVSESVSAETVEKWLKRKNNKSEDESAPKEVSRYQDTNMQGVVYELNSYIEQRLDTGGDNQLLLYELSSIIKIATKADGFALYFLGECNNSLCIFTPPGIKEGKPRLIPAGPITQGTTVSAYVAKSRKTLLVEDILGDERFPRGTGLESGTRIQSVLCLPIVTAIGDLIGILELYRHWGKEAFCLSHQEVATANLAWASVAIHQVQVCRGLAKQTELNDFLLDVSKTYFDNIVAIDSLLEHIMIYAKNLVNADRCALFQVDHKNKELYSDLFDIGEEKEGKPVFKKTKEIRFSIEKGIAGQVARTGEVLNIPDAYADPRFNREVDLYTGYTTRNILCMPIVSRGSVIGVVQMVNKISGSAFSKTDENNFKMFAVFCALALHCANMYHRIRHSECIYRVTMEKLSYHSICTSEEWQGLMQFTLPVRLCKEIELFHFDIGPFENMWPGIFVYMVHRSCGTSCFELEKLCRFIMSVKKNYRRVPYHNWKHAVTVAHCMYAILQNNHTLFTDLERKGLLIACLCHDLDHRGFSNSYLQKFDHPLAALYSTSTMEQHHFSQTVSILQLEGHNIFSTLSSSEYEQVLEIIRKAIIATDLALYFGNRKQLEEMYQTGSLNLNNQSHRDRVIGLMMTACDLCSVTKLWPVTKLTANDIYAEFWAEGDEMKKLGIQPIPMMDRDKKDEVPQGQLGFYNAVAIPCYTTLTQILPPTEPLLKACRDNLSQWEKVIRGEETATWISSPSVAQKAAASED

IC50 [1] | Emax [1] | Emax [2] | IC50 [2] | IC50 [3, 4] | Emax ([3]; human recombinant PDE2A) | Emax [3] | IC50 [3] | SMILES
> 10 µM | 11% | 74% | 3.09 µM | 0.0741 µM | 98% | 98% | 0.0741 µM | Cc1nc(C(=O)N2CC[C@@H](C)[C@H](c3cc(C(F)F)nc4ncnn34)C2)c(C(F)(F)F)o1 [Compound 161]
> 10 µM | 26% | 72% | 4.27 µM | 0.0741 µM | 97% | 97% | 0.0741 µM | C[C@@H]1CCN(C(=O)c2cccc(N)n2)C[C@H]1c1cc(C(F)F)nc2ncnn12 [Compound 162]
> 10 µM | 12% | 74% | 3.24 µM | 0.0891 µM | 98% | 98% | 0.0891 µM | C[C@@H]1CCN(C(=O)c2cc(C#N)ccn2)C[C@H]1c1cc(C(F)F)nc2ncnn12 [Compound 163]
> 10 µM | 22% | 82% | 1.95 µM | 0.0891 µM | 100% | 100% | 0.0891 µM | C[C@@H]1CCN(C(=O)c2cncn2C)C[C@H]1c1cc(C(F)F)nc2ncnn12 [Compound 164]
> 10 µM | 36% | 78% | 3.47 µM | 0.0933 µM | 100% | 100% | 0.0933 µM | COc1ccc(C(C)(C)C)cc1C(=O)N1CC[C@@H](C)[C@H](c2cc(C(F)F)nc3ncnn23)C1 [Compound 165]
> 10 µM | 32% | 81% | 2.24 µM | 0.0933 µM | 98% | 98% | 0.0933 µM | C[C@@H]1CCN(C(=O)c2cc3n(n2)CCO3)C[C@H]1c1cc(C(F)F)nc2ncnn12 [Compound 166]
5.37 µM | 64% | 81% | 2 µM | 0.0977 µM | 97% | 97% | 0.0977 µM | C[C@@H]1CCN(C(=O)c2ccc(C(F)(F)F)nc2)C[C@H]1c1cc(C(F)F)nc2ncnn12 [Compound 167]
5.13 µM | 66% | 99% | 0.0537 µM | 0.00398 µM | 98% | 98% | 0.00398 µM | C[C@@H]1CCN(C(=O)c2ccc(O)c(F)c2)C[C@H]1c1cc(C(F)F)nc2ncnn12 [Compound 168]
1.15 µM | 93% | 97% | 0.355 µM | 0.0117 µM | 99% | 99% | 0.0117 µM | COc1ccc2nc(C(=O)N3CC[C@@H](C)[C@H](c4cc(C(F)F)nc5ncnn45)C3)sc2c1 [Compound 171]
0.269 µM | 98% | 100% | 0.0324 µM | 0.00457 µM | 101% | 101% | 0.00457 µM | COc1ccc2c(c1)cc(C(=O)N1CC[C@@H](C)[C@H](c3cc(C(F)F)nc4ncnn34)C1)n2C [Compound 172]
> 10 µM | 31% | 96% | 0.302 µM | 0.0138 µM | 101% | 101% | 0.0138 µM | C[C@@H]1CCN(C(=O)c2cnc(O)c(Cl)c2)C[C@H]1c1cc(C(F)F)nc2ncnn12 [Compound 173]
1.32 µM | 85% | 88% | 0.575 µM | 0.00525 µM | 99% | 99% | 0.00525 µM | C[C@@H]1CCN(C(=O)c2cnc(N(C)C)nc2)C[C@H]1c1cc(C(F)F)nc2ncnn12 [Compound 174]
6.03 µM | 71% | 98% | 0.141 µM | 0.0049 µM | 100% | 100% | 0.0049 µM | C[C@@H]1CCN(C(=O)c2cccc(C(C)(C)C#N)c2)C[C@H]1c1cc(C(F)F)nc2ncnn12 [Compound 175]

Further lines, the compound ahead of its results:

SMILES | IC50 [1] | Emax [1] | Emax [2] | IC50 [2] | IC50 [3, 4] | Emax ([3]; human recombinant PDE2A) | Emax [3] | IC50 [3]
C[C@@H]1CCN(C(=O)c2cccnc2N)C[C@H]1c1cc(C(F)F)nc2ncnn12 [Compound 150] | > 10 µM | 22% | 72% | 3.55 µM | 0.0398 µM | 100% | 100% | 0.0398 µM
Cc1nc2ccncc2cc1C(=O)N1CC[C@@H](C)[C@H](c2cc(C(F)F)nc3ncnn23)C1 [Compound 151] | > 10 µM | 11% | 85% | 1.38 µM |  |  | 100% | 0.0407 µM
Cc1cc(C(=O)N2CC[C@@H](C)[C@H](c3cc(C(F)F)nc4ncnn34)C2)on1 [Compound 152] | > 10 µM | 30% | 80% | 2.04 µM | 0.0417 µM | 99% | 99% | 0.0417 µM
C[C@@H]1CCN(C(=O)c2ccc(Br)cn2)C[C@H]1c1cc(C(F)F)nc2ncnn12 [Compound 153] | 3.09 µM | 76% | 89% | 1.07 µM | 0.0437 µM | 100% | 100% | 0.0437 µM
C[C@@H]1CCN(C(=O)c2ccc(Cl)cn2)C[C@H]1c1cc(C(F)F)nc2ncnn12 [Compound 154] | > 10 µM | 50% | 79% | 2.75 µM | 0.0513 µM | 100% | 100% | 0.0513 µM
C[C@@H]1CCN(C(=O)c2ccncc2F)C[C@H]1c1cc(C(F)F)nc2ncnn12 [Compound 155] | > 10 µM | 37% | 72% | 2.95 µM | 0.0537 µM | 98% | 98% | 0.0537 µM
Cc1ncoc1C(=O)N1CC[C@@H](C)[C@H](c2cc(C(F)F)nc3ncnn23)C1 [Compound 156] | > 10 µM | 19% | 81% | 2 µM | 0.0589 µM | 100% | 100% | 0.0589 µM
Cc1cc(C(=O)N2CC[C@@H](C)[C@H](c3cc(C(F)F)nc4ncnn34)C2)no1 [Compound 157] | > 10 µM | 33% | 75% | 2.57 µM | 0.0603 µM | 99% | 99% | 0.0603 µM
C[C@@H]1CCN(C(=O)c2csc(N)n2)C[C@H]1c1cc(C(F)F)nc2ncnn12 [Compound 158] | > 10 µM | 19% | 78% | 2.14 µM | 0.0646 µM | 100% | 100% | 0.0646 µM
Cc1c(C(=O)N2CC[C@@H](C)[C@H](c3cc(C(F)F)nc4ncnn34)C2)ccnc1Cl [Compound 159] | > 10 µM | 42% | 75% | 3.24 µM | 0.0724 µM | 100% | 100% | 0.0724 µM
Cc1cnoc1C(=O)N1CC[C@@H](C)[C@H](c2cc(C(F)F)nc3ncnn23)C1 [Compound 160] | > 10 µM | 34% | 88% | 1.02 µM | 0.0724 µM | 99% | 99% | 0.0724 µM
